Experimental data published in ChEMBL document CHEMBL5214885, “PROTACs to address the challenges facing small molecule inhibitors” (Eur J Med Chem, 2021).

How the values were obtained:
[1] = biological target: Microtubule-associated protein tau (Homo sapiens, UniProt P10636); assay: Binding affinity to N-terminal His-tagged recombinant human Tau40 expressed in Escherichia coli Rosetta (DE3) assessed as dissociation constant incubated for 0.5 hrs by fluorescence polarization assay
[2] = biological target: Protein cereblon/Bcl-2-like protein 1 (Homo sapiens, UniProt Q07817+Q96SW2); assay: PROTAC activity at CRBN/BCL-XL in human MOLT-4 cells assessed as induction of BCL-XL degradation incubated for 16 hrs by Western blot analysis; format: cell-based
Sequence of Protein cereblon/Bcl-2-like protein 1 (Q07817 whole entry): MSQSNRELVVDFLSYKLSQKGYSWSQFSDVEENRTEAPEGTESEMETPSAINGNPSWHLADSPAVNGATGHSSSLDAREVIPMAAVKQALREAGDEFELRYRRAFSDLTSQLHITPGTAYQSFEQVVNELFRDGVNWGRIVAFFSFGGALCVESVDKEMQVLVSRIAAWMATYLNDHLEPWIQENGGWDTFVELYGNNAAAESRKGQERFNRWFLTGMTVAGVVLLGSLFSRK
Sequence of Protein cereblon/Bcl-2-like protein 1 (Q96SW2 whole entry): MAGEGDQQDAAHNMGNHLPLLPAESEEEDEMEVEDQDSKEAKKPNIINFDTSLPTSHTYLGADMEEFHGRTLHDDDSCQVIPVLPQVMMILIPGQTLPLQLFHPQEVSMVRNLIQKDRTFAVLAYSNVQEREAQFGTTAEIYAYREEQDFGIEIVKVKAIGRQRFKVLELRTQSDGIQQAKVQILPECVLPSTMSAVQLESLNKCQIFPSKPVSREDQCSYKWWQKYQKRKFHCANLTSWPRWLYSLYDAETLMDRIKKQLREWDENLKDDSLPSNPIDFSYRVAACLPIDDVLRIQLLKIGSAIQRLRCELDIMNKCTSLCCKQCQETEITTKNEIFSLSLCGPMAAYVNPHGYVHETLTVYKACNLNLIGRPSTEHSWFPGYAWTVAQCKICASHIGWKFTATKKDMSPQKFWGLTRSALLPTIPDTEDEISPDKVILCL

Sequence of Microtubule-associated protein tau (P10636 whole entry): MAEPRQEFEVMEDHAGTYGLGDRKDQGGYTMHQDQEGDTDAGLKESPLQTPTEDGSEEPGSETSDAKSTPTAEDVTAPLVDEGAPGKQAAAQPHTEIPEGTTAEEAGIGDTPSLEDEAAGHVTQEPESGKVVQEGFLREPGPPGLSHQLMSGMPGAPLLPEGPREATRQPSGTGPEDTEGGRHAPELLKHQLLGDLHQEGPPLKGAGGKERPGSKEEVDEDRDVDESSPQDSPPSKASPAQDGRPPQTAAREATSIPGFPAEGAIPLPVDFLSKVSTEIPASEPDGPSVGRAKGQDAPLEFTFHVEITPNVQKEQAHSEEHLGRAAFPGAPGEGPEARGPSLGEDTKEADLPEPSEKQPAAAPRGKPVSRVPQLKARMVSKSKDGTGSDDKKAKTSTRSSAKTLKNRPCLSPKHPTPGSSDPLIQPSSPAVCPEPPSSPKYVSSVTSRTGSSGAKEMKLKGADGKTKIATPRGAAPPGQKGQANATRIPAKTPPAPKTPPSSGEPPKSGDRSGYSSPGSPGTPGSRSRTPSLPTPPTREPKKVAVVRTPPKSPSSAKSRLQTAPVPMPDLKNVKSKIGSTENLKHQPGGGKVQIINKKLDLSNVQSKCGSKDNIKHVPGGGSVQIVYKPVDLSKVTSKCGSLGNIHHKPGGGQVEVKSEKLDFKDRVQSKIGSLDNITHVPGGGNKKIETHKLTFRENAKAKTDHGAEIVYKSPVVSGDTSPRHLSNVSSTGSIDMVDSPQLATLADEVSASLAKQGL

Kd [1] [nM]	EC50 [2] [nM]	Structure (SMILES)
394		CC[C@H](C)[C@H](NC(=O)[C@H](Cc1ccc(O)cc1)NC(=O)[C@@H]1CCCN1C(=O)[C@H](C)NC(=O)[C@H](CC(C)C)NC(=O)[C@H](C)NC(=O)[C@H](CO)NC(=O)CNC(=O)[C@H](CO)NC(=O)CNC(=O)CNC(=O)[C@H](CCC(N)=O)NC(=O)[C@H](CCC(=O)O)NC(=O)[C@H](CC(=O)O)NC(=O)[C@H](C)NC(=O)[C@@H](NC(=O)[C@H](C)NC(=O)[C@H](CC(=O)O)NC(=O)[C@H](CCC(N)=O)NC(=O)[C@H](Cc1ccc(O)cc1)NC(=O)[C@H](CCC(N)=O)NC(=O)[C@H](CCC(N)=O)NC(=O)[C@@H](N)Cc1ccc(O)cc1)[C@@H](C)O)C(=O)N1CCC[C@H]1C(=O)N[C@H](CCCNC(=N)N)C(=O)N[C@H](CCCNC(=N)N)C(=O)N[C@H](CCCNC(=N)N)C(=O)N[C@H](CCCNC(=N)N)C(=O)N[C@H](CCCNC(=N)N)C(=O)N[C@H](CCCNC(=N)N)C(=O)N[C@H](CCCNC(=N)N)C(=O)N[C@H](CCCNC(=N)N)C(=O)O
	50	O=C1CCC(N2C(=O)c3cccc(NCCOCCOCc4cn(CCCC(=O)N5CCN(CC#Cc6ccc(OCCCc7sc(N8CCc9cccc(C(=O)Nc%10nc%11ccccc%11s%10)c9C8)nc7C(=O)O)c(F)c6)CC5)nn4)c3C2=O)C(=O)N1 (configuration not stated)
